Laboratory results taken from BindingDB's records for doi:10.1002/cmdc.201100077 (Zydus Research Centre, 2011).

Key:
[1] = biological target: T1, Tyrosine-protein phosphatase non-receptor type 1 (Homo sapiens, UniProt P18031); test: Enzyme Assays
T1 sequence (P18031 whole entry): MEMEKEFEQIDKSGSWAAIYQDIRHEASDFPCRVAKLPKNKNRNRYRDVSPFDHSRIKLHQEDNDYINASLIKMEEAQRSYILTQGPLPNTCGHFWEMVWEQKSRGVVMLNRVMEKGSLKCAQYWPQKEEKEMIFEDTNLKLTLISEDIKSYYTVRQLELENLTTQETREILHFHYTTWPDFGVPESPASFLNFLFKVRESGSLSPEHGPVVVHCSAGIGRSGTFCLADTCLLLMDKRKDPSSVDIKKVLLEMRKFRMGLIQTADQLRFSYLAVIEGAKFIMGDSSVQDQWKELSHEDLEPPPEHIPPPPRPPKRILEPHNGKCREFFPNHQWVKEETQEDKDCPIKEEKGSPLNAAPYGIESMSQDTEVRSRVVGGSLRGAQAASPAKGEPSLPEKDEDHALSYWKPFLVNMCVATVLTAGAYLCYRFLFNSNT
Procedure: (§1) The in vitro enzyme inhibitory activity was evaluated by using the pNPP assay. Para-nitrophenylphosphate (pNPP) and test compounds were added to assay buffer, and reactions were initiated by the addition of PTP1B or TCPTP (10-100 nM).

[2] = biological target: T2, Tyrosine-protein phosphatase non-receptor type 2 (Homo sapiens, UniProt P17706); test: Enzyme Assays
T2 sequence (P17706 whole entry): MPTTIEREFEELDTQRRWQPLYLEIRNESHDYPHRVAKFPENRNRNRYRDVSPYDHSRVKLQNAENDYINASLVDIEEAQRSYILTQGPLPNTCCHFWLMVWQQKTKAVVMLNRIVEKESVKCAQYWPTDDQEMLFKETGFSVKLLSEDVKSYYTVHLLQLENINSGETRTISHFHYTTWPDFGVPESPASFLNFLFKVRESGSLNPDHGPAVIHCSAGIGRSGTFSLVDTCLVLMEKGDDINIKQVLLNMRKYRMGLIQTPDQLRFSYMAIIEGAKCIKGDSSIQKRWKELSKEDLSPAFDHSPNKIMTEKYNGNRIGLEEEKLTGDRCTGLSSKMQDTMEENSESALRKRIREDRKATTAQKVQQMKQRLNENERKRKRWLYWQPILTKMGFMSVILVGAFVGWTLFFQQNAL
Procedure: as §1

Structure (SMILES)	IC50 [1]	IC50 [2]
O=C(c1ccccc1)C(Cc1ccc2cc(Br)c(C(F)(F)P(=O)(O)O)cc2c1)(Cc1ccc2cc(Br)c(C(F)(F)P(=O)(O)O)cc2c1)n1nnc2ccccc21	5 nM	580 nM
O=C(c1ccccc1)C(Cc1ccc(C(F)(F)P(=O)(O)O)c(Br)c1)(Cc1ccc2cc(Br)c(C(F)(F)P(=O)(O)O)cc2n1)n1nnc2ccccc21 (stereo not drawn) [({2-[2-(1H-1,2,3-benzotriazol-1-yl)-2-({3-bromo-4-[difluoro(phosphono)methyl]phenyl}methyl)-3-oxo-3-phenylpropyl]-6-bromoquinolin-7-yl}difluoromethyl)phosphonic acid (10l)]	21 nM	
O=C(c1ccccc1)C(Cc1ccc2cc(Br)c(C(F)(F)P(=O)(O)O)cc2n1)(Cc1ccc2cc(Br)c(C(F)(F)P(=O)(O)O)cc2n1)n1nnc2ccccc21 [({2-[2-(1H-1,2,3-benzotriazol-1-yl)-2-({6-bromo-7-[difluoro(phosphono)methyl]quinolin-2-yl}methyl)-3-oxo-3-phenylpropyl]-6-bromoquinolin-7-yl}difluoromethyl)phosphonic acid (10n)]	5 nM	101 nM
N[S+]([O-])C(F)(F)c1ccc(CC(Cc2ccc3cc(Br)c(C(F)(F)P(=O)(O)O)cc3n2)(C(=O)c2ccccc2)n2nnc3ccccc32)cc1Br (stereo not drawn) [({2-[2-({4-[(aminosulfinyl)difluoromethyl]-3-bromophenyl}methyl)-2-(1H-1,2,3-benzotriazol-1-yl)-3-oxo-3-phenylpropyl]-6-bromoquinolin-7-yl}difluoromethyl)phosphonic acid (10m)]	22 nM	
N[S+]([O-])C(F)(F)c1cc2nc(CC(Cc3ccc4cc(Br)c(C(F)(F)P(=O)(O)O)cc4n3)(C(=O)c3ccccc3)n3nnc4ccccc43)ccc2cc1Br (stereo not drawn) [({2-[2-({7-[(aminosulfinyl)difluoromethyl]-6-bromoquinolin-2-yl}methyl)-2-(1H-1,2,3-benzotriazol-1-yl)-3-oxo-3-phenylpropyl]-6-bromoquinolin-7-yl}difluoromethyl)phosphonic acid (10o)]	4 nM	82 nM
O=C(c1ccccc1)C(Cc1ccc(C(F)(F)P(=O)(O)O)c(Br)c1)(Cc1ccc2cc(Br)c(C(F)(F)P(=O)(O)O)cc2c1)n1nnc2ccccc21 (stereo not drawn) [({7-[2-(1H-1,2,3-benzotriazol-1-yl)-2-({3-bromo-4-[difluoro(phosphono)methyl]phenyl}methyl)-3-oxo-3-phenylpropyl]-3-bromonaphthalen-2-yl}difluoromethyl)phosphonic acid (10b)]	20 nM	201 nM
O=C(c1ccccc1)C(Cc1ccc(C(F)(F)P(=O)(O)O)cc1)(Cc1ccc2cc(Br)c(C(F)(F)P(=O)(O)O)cc2c1)n1nnc2ccccc21 (stereo not drawn) [({7-[2-(1H-1,2,3-benzotriazol-1-yl)-2-({4-[difluoro(phosphono)methyl]phenyl}methyl)-3-oxo-3-phenylpropyl]-3-bromonaphthalen-2-yl}difluoromethyl)phosphonic acid (10a)]	46 nM	
O=C(c1ccccc1)C(Cc1ccc(Br)c(C(F)(F)P(=O)(O)O)c1)(Cc1ccc2cc(Br)c(C(F)(F)P(=O)(O)O)cc2c1)n1nnc2ccccc21 (stereo not drawn) [({7-[2-(1H-1,2,3-benzotriazol-1-yl)-2-({4-bromo-3-[difluoro(phosphono)methyl]phenyl}methyl)-3-oxo-3-phenylpropyl]-3-bromonaphthalen-2-yl}difluoromethyl)phosphonic acid (10c)]	404 nM	
O=C(c1ccccc1)C(Cc1ccc2cc(Br)c(C(F)(F)P(=O)(O)O)cc2c1)(Cc1ccc2cc(Br)c(C(F)(F)P(=O)(O)O)cc2n1)n1nnc2ccccc21 (stereo not drawn) [({7-[2-(1H-1,2,3-benzotriazol-1-yl)-2-({6-bromo-7-[difluoro(phosphono)methyl]quinolin-2-yl}methyl)-3-oxo-3-phenylpropyl]-3-bromonaphthalen-2-yl}difluoromethyl)phosphonic acid (10i)]	3 nM	90 nM
O=C1CC(c2ccc(CC(Cc3ccc4cc(Br)c(C(F)(F)P(=O)(O)O)cc4c3)(C(=O)c3ccccc3)n3nnc4ccccc43)cc2F)S(=O)(=O)N1 (stereo not drawn) [({7-[2-(1H-1,2,3-benzotriazol-1-yl)-2-{[3-fluoro-4-(1,1,3-trioxo-1λ⁶,2-thiazolidin-5-yl)phenyl]methyl}-3-oxo-3-phenylpropyl]-3-bromonaphthalen-2-yl}difluoromethyl)phosphonic acid (10g)]	919 nM	
Cc1cc(CC(Cc2ccc3cc(Br)c(C(F)(F)P(=O)(O)O)cc3c2)(C(=O)c2ccccc2)n2nnc3ccccc32)ccc1C1CC(=O)NS1(=O)=O (stereo not drawn) [({7-[2-(1H-1,2,3-benzotriazol-1-yl)-2-{[3-methyl-4-(1,1,3-trioxo-1λ⁶,2-thiazolidin-5-yl)phenyl]methyl}-3-oxo-3-phenylpropyl]-3-bromonaphthalen-2-yl}difluoromethyl)phosphonic acid (10f)]	924 nM	
O=C1CC(c2ccc(CC(Cc3ccc4cc(Br)c(C(F)(F)P(=O)(O)O)cc4c3)(C(=O)c3ccccc3)n3nnc4ccccc43)cc2)S(=O)(=O)N1 (stereo not drawn) [({7-[2-(1H-1,2,3-benzotriazol-1-yl)-3-oxo-3-phenyl-2-{[4-(1,1,3-trioxo-1λ⁶,2-thiazolidin-5-yl)phenyl]methyl}propyl]-3-bromonaphthalen-2-yl}difluoromethyl)phosphonic acid (10e)]	930 nM	
N[S+]([O-])C(F)(F)c1ccc(CC(Cc2ccc3cc(Br)c(C(F)(F)P(=O)(O)O)cc3c2)(C(=O)c2ccccc2)n2nnc3ccccc32)cc1Br (stereo not drawn) [({7-[2-({4-[(aminosulfinyl)difluoromethyl]-3-bromophenyl}methyl)-2-(1H-1,2,3-benzotriazol-1-yl)-3-oxo-3-phenylpropyl]-3-bromonaphthalen-2-yl}difluoromethyl)phosphonic acid (10d)]	19 nM	192 nM
N[S+]([O-])C(F)(F)c1cc2cc(CC(Cc3ccc4cc(Br)c(C(F)(F)P(=O)(O)O)cc4c3)(C(=O)c3ccccc3)n3nnc4ccccc43)ccc2cc1Br (stereo not drawn) [({7-[2-({7-[(aminosulfinyl)difluoromethyl]-6-bromonaphthalen-2-yl}methyl)-2-(1H-1,2,3-benzotriazol-1-yl)-3-oxo-3-phenylpropyl]-3-bromonaphthalen-2-yl}difluoromethyl)phosphonic acid (10j)]	4 nM	480 nM
N[S+]([O-])C(F)(F)c1cc2nc(CC(Cc3ccc4cc(Br)c(C(F)(F)P(=O)(O)O)cc4c3)(C(=O)c3ccccc3)n3nnc4ccccc43)ccc2cc1Br (stereo not drawn) [({7-[2-({7-[(aminosulfinyl)difluoromethyl]-6-bromoquinolin-2-yl}methyl)-2-(1H-1,2,3-benzotriazol-1-yl)-3-oxo-3-phenylpropyl]-3-bromonaphthalen-2-yl}difluoromethyl)phosphonic acid (10k)]	6 nM	185 nM
